Source: patent publication US5578608A, “Symmetrical diaryl and diheteroanyl cis epoxy alkanes antiviral compounds” (Eli Lilly and Company, priority 1995, dated 1996)
Like-named read-outs stand apart in the source and are kept apart here.

Molecular target: T1, HIV-1 protease (Human immunodeficiency virus type 1 group M subtype B, UniProt P04585)
T1 construct: made in house; host or cells: E. coli K12 L507/pHP10D (NRRL B-18560)
Test: biochemical
Conditions: for inhibition at 1 µg/mL: at 1000 ng/ml, read-out: Fluorescence Assay, given as ICxx (1000): xx is the percent inhibition
Description: A culture of E. coli K12 L507/pHP10D was grown to mid-log phase at 32° C. in LB media containing 12.5 μg/ml tetracycline. The cultivation temperature was quickly elevated to 40° C. to induce gene expression, and the cells were allowed to grow for 2.5 hours at this temperature before the culture was quickly chilled on ice. The cells were centrifuged and the cell pellet was resuspended in 20 mL 50 mmol MES buffer (pH 6.0) containing 1 mmol EDTA, 1 mmol DTT, 1 mmol PMSF and 10% glycerol ("Buffer A"). Cells were lysed by sonication using a Fischer Model 300 Dismembrator and a microtip probe. Following centrifugation at 27,000 x g, the supernatant was diluted to a total volume of 60 mL with Buffer A and loaded onto a 2.0×19 cm QAE-Sepharose column (1 mL/min, 4° C.), that had been equilibrated in Buffer A. The column was washed isocratically for 180 min and then eluted with a gradient eluent of 0-1.0M NaCl in Buffer A over 120 min. Enzymatic activity was measured by HPLC using the synthetic peptide SQNYPIV as described in Margolin et al., Biochem. Biophys. Res. Commun., […], 554-560 (1990); the production of the p1 peptide (SQNY) was measured.
N^a -Biotin-[…]N^e -FITC)-OH SEQ ID NO: 1
The following buffers and solutions are used in the Fluorescence HIV-1 Protease Inhibitor Assay:
To each well of a round bottom, 96-well plate is added 20 μL of the Enzyme Solution followed by 10 μL of the compound to be evaluated in a 20% aqueous dimethylsulfoxide solution. Purified HIV-1 protease was obtained as described above. The resulting solution is incubated for one hour at room temperature and then 20 μL of a solution containing the substrate, N^a -Biotin-[…]N^e-FITC)-OH, in MES-ALB buffer ([…]) is added to each well. The solutions are then incubated for 16 hours at room temperature and then each well is diluted with 150 μL of MES-ALB buffer.
To each well of a second round bottom, 96-well Pandex plate is added 25 uL of the Avidin Coated Beads Solution. Then, to each well is added 25 μL of the diluted incubation solutions, prepared above. The solutions are mixed thoroughly and the plates are loaded into a Pandex® machine, washed, evacuated and read. Sample detection was performed by excitation at 485 nm, reading the resulting epifluorescence at 535 nm.

[1] = read-out: Fluorescence Assay IC50 (converted)

Row | SMILES | IC50 [1] [nM] | inhibition at 1 µg/mL [%] | further results
1 | CCCC[C@H](NC(=O)N(C)Cc1ccc2ccccc2n1)C(=O)N[C@@H](Cc1ccccc1)[C@@H]1O[C@@H]1[C@H](Cc1ccccc1)NC(=O)[C@H](CCCC)NC(=O)N(C)Cc1ccc2ccccc2n1 [Example 22, 1,6-Diphenyl-2(S),5(S)-di[N-[2(S)-N[[N(methyl)-N(quinolin-2-ylmethyl)amino]carbonyl]aminohexanoyl]amino]-3,4-cis-epoxyhexane] | 437 | – | –
2 | CC(C)(C)C(NC(=O)OCc1cccnc1)C(=O)NC(Cc1ccccc1)C1OC1C(Cc1ccccc1)NC(=O)C(NC(=O)OCc1cccnc1)C(C)(C)C [Example 23, 1,6-Diphenyl-2(S),5(S)-di[N-[2(S)-N(pyrid-3-ylmethoxycarbonyl)amino-3,3-dimethylbutanoyl]amino]-3,4-cis-epoxyhexane] | – | – | Fluorescence Assay IC50 (16 h incubation at room temperature, MES-ALB buffer pH 5.5, normalized to a positive control): 0.497 µg/mL
3 | CC[C@H](C)[C@H](NC(=O)N(C)Cc1ccccn1)C(=O)N[C@@H](Cc1ccccc1)[C@@H]1O[C@@H]1[C@H](Cc1ccccc1)NC(=O)[C@@H](NC(=O)N(C)Cc1ccccn1)[C@@H](C)CC [Example 24, 1,6-Diphenyl-2(S),5(S)-di[N-[2(S)-N[[N(methyl)-N(pyrid-2-ylmethyl)amino]carbonyl]amino-3(S)-methylpentanoyl]amino]-3,4-cis-epoxyhexane] | – | – | IC50 (16 h incubation at room temperature, MES-ALB buffer pH 5.5, normalized to a positive control, read-out: Fluorescence Assay IC50 (converted)): 163 nM
4 | CCCC[C@H](NC(=O)OCc1ccccn1)C(=O)N[C@@H](Cc1ccccc1)[C@@H]1O[C@@H]1[C@H](Cc1ccccc1)NC(=O)[C@H](CCCC)NC(=O)OCc1ccccn1 [Example 25, 1,6-Diphenyl-2(S),5(S)-di[N-[2(S)-N(pyrid-2-ylmethoxycarbonyl)amino]hexanoyl]amino-3,4-cis-epoxyhexane] | – | 40 | –
5 | CC[C@H](NC(=O)N(C)Cc1ccccn1)C(=O)N[C@@H](Cc1ccccc1)[C@@H]1O[C@@H]1[C@H](Cc1ccccc1)NC(=O)[C@H](CC)NC(=O)N(C)Cc1ccccn1 [Example 28, 1,6-Diphenyl-2(S),5(S)-di[N-[2(S)-N[[N(methyl)-N(pyrid-2-ylmethyl)amino]carbonyl]aminobutanoyl]amino]-3,4-cis-epoxyhexane] | 1090 | – | –
6 | CC[C@H](C)[C@H](NC(=O)NCc1ccccn1)C(=O)N[C@@H](Cc1ccccc1)[C@@H]1O[C@@H]1[C@H](Cc1ccccc1)NC(=O)[C@@H](NC(=O)NCc1ccccn1)[C@@H](C)CC [Example 31] | 32.4 | – | –
7 | CC[C@H](NC(=O)N(C)Cc1ccc2ccccc2n1)C(=O)N[C@@H](Cc1ccc2ccccc2c1)[C@@H]1O[C@@H]1[C@H](Cc1ccc2ccccc2c1)NC(=O)[C@H](CC)NC(=O)N(C)Cc1ccc2ccccc2n1 [Example 32] | – | – | IC50 (read-out: Fluorescence Assay average IC50 (marked *) (converted)): 181 nM
8 | CCC(NC(=O)N(C)Cc1ccccn1)C(=O)NC(CSc1ccc2ccccc2c1)C1OC1C(CSc1ccc2ccccc2c1)NC(=O)C(CC)NC(=O)N(C)Cc1ccccn1 [Example 35, 1,6-Dinaphth-2-ylthio-2(S),5(S)-di[N-[2(S)-N-[[N(methyl)-N (pyrid-2-ylmethyl)amino]carbonyl]aminobutanoyl]amino]-3,4-cis-epoxyhexane] | – | 23 | –
9 | CC(C)[C@H](NC(=O)OCc1ccccn1)C(=O)N[C@@H](CCc1ccccc1)[C@@H]1O[C@@H]1[C@H](CCc1ccccc1)NC(=O)[C@@H](NC(=O)OCc1ccccn1)C(C)C [Example 36] | – | 26 | –
10 | CC[C@H](NC(=O)N(C)Cc1ccccn1)C(=O)N[C@@H](CCCc1ccccc1)[C@@H]1O[C@@H]1[C@H](CCCc1ccccc1)NC(=O)[C@H](CC)NC(=O)N(C)Cc1ccccn1 [Example 37, 1,10-Diphenyl-4(S),7(S)-di[N-[2(S)-N-[[N(methyl)-N(pyrid-2-ylmethyl)amino]carbonyl]aminobutanoyl]amino]-5,6-cis-epoxydecane] | 206 | – | –
11 | CC[C@H](NC(=O)N(C)Cc1ccc2ccccc2n1)C(=O)N[C@@H](CCCc1ccccc1)[C@@H]1O[C@@H]1[C@H](CCCc1ccccc1)NC(=O)[C@H](CC)NC(=O)N(C)Cc1ccc2ccccc2n1 [Example 38, 1,10-Diphenyl-4(S),7(S)-di[N-[2(S)-N-[[N(methyl)-N(quinolin-2-ylmethyl)amino]carbonyl]aminobutanoyl]amino]-5,6-cis-epoxydecane] | 23.8 | – | –

Continued, in another order:

Row | IC50 [1] [nM] | inhibition at 1 µg/mL [%] | SMILES | further results
12 | – | 23 | CC(C)[C@H](NC(=O)c1ccc2ccccc2n1)C(=O)N[C@@H](Cc1ccccc1)[C@@H]1O[C@@H]1[C@H](Cc1ccccc1)NC(=O)[C@@H](NC(=O)c1ccc2ccccc2n1)C(C)C [Example 26, 1,6-Diphenyl-2(S),5(S)-di[N-[2(S)-N(quinolin-2-ylcarbonyl)amino-3-methylbutanoyl]amino]-3,4-cis-epoxyhexane] | –
13 | 30.7 | – | CN(Cc1ccc2ccccc2n1)C(=O)N[C@@H](CC#N)C(=O)N[C@@H](Cc1ccccc1)[C@@H]1O[C@@H]1[C@H](Cc1ccccc1)NC(=O)[C@H](CC#N)NC(=O)N(C)Cc1ccc2ccccc2n1 [Example 27, 1,6-Diphenyl-2(S),5(S)-di [N-[2(S)-N[[N(methyl)-N(quinolin-2-ylmethyl)amino]carbonyl]amino-3-cyanopropanoyl]amino]-3,4-cis-epoxyhexane] | –
14 | 39.2 | – | Cc1cccc(COC(=O)N[C@H](C(=O)N[C@@H](Cc2ccccc2)[C@@H]2O[C@@H]2[C@H](Cc2ccccc2)NC(=O)[C@@H](NC(=O)OCc2cccc(C)n2)C(C)C)C(C)C)n1 [Example 29, 1,6-Diphenyl-2(S),5(S)-di[N-[2(S)-N(6-methylpyrid-2-ylmethoxycarbonyl)amino-3-methylbutanoyl]amino]-3,4-cis-epoxyhexane] | –
15 | 382 | – | CC(C)(C)[C@H](NC(=O)OCc1ccc2ccccc2n1)C(=O)N[C@@H](Cc1ccccc1)[C@@H]1O[C@@H]1[C@H](Cc1ccccc1)NC(=O)[C@@H](NC(=O)OCc1ccc2ccccc2n1)C(C)(C)C [Example 30] | –
16 | – | 25 | CC[C@H](C)[C@H](NC(=O)N(C)Cc1ccccn1)C(=O)N[C@@H](Cc1ccc2ccccc2c1)[C@@H]1O[C@@H]1[C@H](Cc1ccc2ccccc2c1)NC(=O)[C@@H](NC(=O)N(C)Cc1ccccn1)[C@@H](C)CC [Example 33, 1,6-Dinaphth-2-yl-2(S),5(S)-di[N-[2(S)-N-[[N(methyl)-N(pyrid-2-ylmethyl)amino]carbonyl]amino-3(S)-methylpentanoyl]amino]-3,4-cis-epoxyhexane] | –
17 | – | 34 | CC[C@H](NC(=O)N(C)Cc1ccccn1)C(=O)N[C@@H](Cc1ccc2ccccc2c1)[C@@H]1O[C@@H]1[C@H](Cc1ccc2ccccc2c1)NC(=O)[C@H](CC)NC(=O)N(C)Cc1ccccn1 [Example 34, 1,6-Dinaphth-2-yl-2(S),5(S)-di[N-[2(S)-N-[[N(methyl)-N (pyrid-2-ylmethyl)amino]carbonyl]aminobutanoyl]amino]-3,4-cis-epoxyhexane] | –
